In US9302999B2, “Substituted triazoles as herbicides” (E. I. DU PONT DE NEMOURS AND COMPANY, priority 2012, dated 2016):

What was measured:
Type in all cases: in vivo
[1] = test system: galium (catchweed bedstraw, Galium aparine); assay: Test D pre-/postemergence: galium
Method in brief: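 Pre- and postemergence herbicide screen. Soil for pre: silt loam; post medium: peat moss, vermiculite, wetting agent, starter nutrients. Plant stage at post: 1- to 4-leaf. Readout: visual % control, 14–21 days.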

[2] = test system: woolly cupgrass (Eriochloa villosa); assay: Test C pre-/postemergence: woolly cupgrass
Method in brief: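 Preemergence on seeds in loam/sand, postemergence on 2–18 cm (1–4-leaf) plants in peat-based medium; compounds in non-phytotoxic solvent with surfactant. After 13–15 days in greenhouse, visual rating versus controls, 0 (no effect) to 100 (complete control).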

[3] = test system: deadnettle (henbit deadnettle, Lamium amplexicaule); assay: Test C postemergence: deadnettle
Source text: At the same time, plants selected from these crop and weed species and also barley (winter barley, Hordeum vulgare), canarygrass (Phalaris minor), chickweed (common chickweed, Stellaria media) windgrass (Apera spica-venti) and deadnettle (henbit deadnettle, Lamium amplexicaule) were planted in pots containing Redi-Earth® planting medium (Scotts Company, 14111 Scottslawn Road, Marysville, Ohio 43041) comprising spaghnum peat moss, vermiculite, wetting agent and starter nutrients and treated with postemergence applications of test chemicals formulated in the same manner. Plants ranged in height from 2 to 18 cm (1- to 4-leaf stage) for postemergence treatments.
Treated plants and controls were maintained in a greenhouse for 13 to 15 days, after which time all species were compared to controls and visually evaluated. Plant response ratings, summarized in Table C, are based on a scale of 0 to 100 where 0 is no effect and 100 is complete control. A dash (-) response means no test result.

[4] = test system: sedge, umbrella (small-flower umbrella sedge Cyperus difformis); assay: Test B flooded paddy: sedge, umbrella; settings: Flood; 250 g ai/ha; applied to paddy water at 2-leaf stage; visually evaluated after 13 to 15 days
Method in brief: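 Visual ratings on a 0–100 scale, where 0 means no effect and 100 means complete control, were assigned by comparison with controls 13 to 15 days after treatment. Compounds went into paddy water over 2-leaf plants flooded to 3 cm.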

[5] = Postemergence, 31 g ai/ha, scale 0 to 100 (0 no effect, 100 complete control)
[6] = Postemergence, 62 g ai/ha, scale 0 to 100 (0 no effect, 100 complete control)
[7] = Postemergence, 125 g ai/ha, scale 0 to 100, 0 no effect, 100 complete control
[8] = Postemergence, 250 g ai/ha, scale 0 to 100 (0 no effect, 100 complete control)
[9] = Postemergence, 16 g ai/ha, scale 0 to 100
[10] = Postemergence, 250 g ai/ha, scale 0 to 100
[11] = 31 g ai/ha, scale 0 to 100 (0 no effect, 100 complete control)
[12] = 62 g ai/ha, scale 0 to 100 (0 no effect, 100 complete control)
[13] = 125 g ai/ha, scale 0 to 100, 0 no effect, 100 complete control
[14] = Preemergence, 62 g ai/ha, scale of 0 to 100, 0 is no effect, 100 is complete control
[15] = Preemergence, 125 g ai/ha, scale 0 to 100, 0 no effect, 100 complete control
[16] = Preemergence, 250 g ai/ha, scale 0 to 100, 0 no effect, 100 complete control

## Cc1nn(-c2ccnc(C(F)(F)F)c2)nc1Cc1ccnc(C(F)(F)F)c1 [Compound 137]
[1]; [5]
  Plant response rating: Galium: 20
[1]; [6]
  Plant response rating: Galium: 40
[1]; [7]
  Plant response rating: Galium: 75
[1]; [8]
  Plant response rating: Galium: 75
[1]; [9]
  Plant response rating, Galium: 20
[2]; [5]
  Plant response rating, Cupgrass, Woolly: 45
[2]; [6]
  Plant response rating, Cupgrass, Woolly: 50
[2]; [7]
  Plant response rating, Cupgrass, Woolly: 55
[2]; [10]
  Plant response rating, Cupgrass, Woolly: 90
[3]; [11]
  Plant response rating, Deadnettle: 80
[3]; [12]
  Plant response rating, Deadnettle: 95
[3]; [13]
  Plant response rating, Deadnettle: 95
[3]; 250 g ai/ha, scale 0 to 100
  Plant response rating, Deadnettle: 95
[4]
  Plant response rating, Sedge, Umbrella (0 to 100 scale, 0 is no effect, 100 is complete control): 70

## Cc1nn(-c2ccc(F)c(F)c2)nc1Oc1ccnc(C(F)(F)F)c1 [Compound 145]
[1]; [5]
  Plant response rating: Galium: 35
[1]; [6]
  Plant response rating: Galium: 40
[1]; [7]
  Plant response rating: Galium: 70
[1]; Postemergence, 8 g ai/ha, scale 0 to 100
  Plant response rating, Galium: 5
[1]; [9]
  Plant response rating, Galium: 30
[2]; [5]
  Plant response rating, Cupgrass, Woolly: 20
[2]; [6]
  Plant response rating, Cupgrass, Woolly: 25
[2]; [7]
  Plant response rating, Cupgrass, Woolly: 40
[2]; [10]
  Plant response rating, Cupgrass, Woolly: 75
[2]; Preemergence, 31 g ai/ha, scale of 0 to 100, 0 is no effect, 100 is complete control
  Plant response rating, Cupgrass, Woolly: 55
[2]; [14]
  Plant response rating, Cupgrass, Woolly: 90
[2]; [15]
  Plant response rating, Cupgrass, Woolly: 95
[2]; [16]
  Plant response rating, Cupgrass, Woolly: 98
[3]; [11]
  Plant response rating, Deadnettle: 100
[3]; [12]
  Plant response rating, Deadnettle: 100
[3]; [13]
  Plant response rating, Deadnettle: 100
[3]; 250 g ai/ha, scale 0 to 100
  Plant response rating, Deadnettle: 100
[4]
  Plant response rating, Sedge, Umbrella (0 to 100 scale, 0 is no effect, 100 is complete control): 85

## CCOc1nn(-c2ccc(F)cc2)nc1Cc1ccnc(C(F)F)c1 [Compound 195]
[1]; [5]
  Plant response rating: Galium: 30
[1]; [6]
  Plant response rating: Galium: 50
[1]; [7]
  Plant response rating: Galium: 75
[1]; [8]
  Plant response rating: Galium: 80
[1]; [9]
  Plant response rating, Galium: 20
[1]; Preemergence, 16 g ai/ha, scale 0 to 100 (0 no effect, 100 complete control)
  Plant response rating, Galium: 0
[1]; Preemergence, 31 g ai/ha, scale 0 to 100 (0 no effect, 100 complete control)
  Plant response rating, Galium: 0
[1]; Preemergence, 62 g ai/ha, scale 0 to 100
  Plant response rating, Galium: 10
[1]; Preemergence, 125 g ai/ha, scale 0 to 100
  Plant response rating, Galium: 30
[1]; Preemergence, 250 g ai/ha, scale 0 to 100
  Plant response rating, Galium: 80
[2]; [5]
  Plant response rating, Cupgrass, Woolly: 50
[2]; [6]
  Plant response rating, Cupgrass, Woolly: 65
[2]; [7]
  Plant response rating, Cupgrass, Woolly: 75
[2]; [10]
  Plant response rating, Cupgrass, Woolly: 75
[2]; Preemergence, 31 g ai/ha, scale 0 (no effect) to 100 (complete control)
  Plant response rating, Cupgrass, Woolly: 20
[2]; [14]
  Plant response rating, Cupgrass, Woolly: 95
[2]; [15]
  Plant response rating, Cupgrass, Woolly: 95
[2]; [16]
  Plant response rating, Cupgrass, Woolly: 98
[3]; [11]
  Plant response rating, Deadnettle: 100
[3]; [12]
  Plant response rating, Deadnettle: 100
[3]; [13]
  Plant response rating, Deadnettle: 100
[3]; 250 g ai/ha, scale 0 to 100
  Plant response rating, Deadnettle: 100
[4]
  Plant response rating, Sedge, Umbrella (0 to 100 scale, 0 is no effect, 100 is complete control): 100
